According to US20060276464A1, “Diarylsulfone sulfonamides and use thereof” (Wyeth, priority 2005, published 2006):
Read-outs that look alike come from different tables or passages of the source.

Target: T1, SFRP-1 (Homo sapiens, UniProt Q8N474)
T1 sequence (Q8N474 32-314): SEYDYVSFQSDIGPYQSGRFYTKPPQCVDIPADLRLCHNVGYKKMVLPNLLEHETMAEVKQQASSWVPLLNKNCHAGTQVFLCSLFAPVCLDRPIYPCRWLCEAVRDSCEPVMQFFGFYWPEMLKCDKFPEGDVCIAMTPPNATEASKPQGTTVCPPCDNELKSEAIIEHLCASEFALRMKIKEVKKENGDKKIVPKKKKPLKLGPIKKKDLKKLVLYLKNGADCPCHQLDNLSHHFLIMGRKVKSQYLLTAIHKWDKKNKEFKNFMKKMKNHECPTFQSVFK
Assay: Cell-based assay for in vitro measurement of SFRP-1/SARP2 antagonist activity (U2OS cells co-transfected with 16x TCF-tk-Luciferase reporter, Wnt and hSFRP-1);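 also: U2OS cells co-transfected with a TCF-tk luciferase reporter, a Wnt vector, hSFRP-1 or empty vector and CMV-βgal, luciferase luminescence read in cell lysates alongside βgal activity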
Details: for fold induction at 15 µM / fold induction at 30 µM: U2OS

[1] = read-out: Fold Induction with SFRP-1, Conc 15 μM, with SFRP-1, fold induction over SFRP-1 control, single dose
[2] = read-out: Fold Induction without SFRP-1, Conc 15 μM, without SFRP-1, single dose
[3] = read-out: Fold Induction with SFRP-1, Conc 30 μM, with SFRP-1, fold induction over SFRP-1 control, single dose
[4] = read-out: Fold Induction without SFRP-1, Conc 30 μM, without SFRP-1, single dose
[5] = Conc 30 μM, with SFRP-1, fold induction over SFRP-1 control, single dose

fold induction at 15 µM [1]	fold induction at 15 µM [2]	fold induction at 30 µM [3]	fold induction at 30 µM [4]	Fold Induction with SFRP-1 [5]	Fold Induction without SFRP-1 (Conc 30 μM, without SFRP-1, single dose)	Structure (SMILES)
–	–	1.5	0.6	–	–	Cc1ccc(S(=O)(=O)c2ccccc2)cc1S(=O)(=O)NCCc1ccccc1 [Example 1, 2-Methyl-N-(2-phenylethyl)-5-(phenylsulfonyl)benzene sulfonamide]
–	–	0.1	0.1	–	–	COc1ccccc1CCNS(=O)(=O)c1cc(S(=O)(=O)c2ccc(F)cc2)ccc1C [Example 4, 5-[(4-fluorophenyl)sulfonyl]-N-[2-(2-methoxyphenyl)ethyl]-2-methylbenzenesulfonamide]
–	–	0.5	0.5	–	–	COc1ccccc1CCNS(=O)(=O)c1cc(S(=O)(=O)c2ccccc2)ccc1C [Example 32, N-[2-(2-methoxyphenyl)ethyl]-2-methyl-5-(phenylsulfonyl)benzenesulfonamide]
–	–	1.2	0.4	–	–	COc1cccc(CCNS(=O)(=O)c2cc(S(=O)(=O)c3ccccc3)ccc2C)c1 [Example 33, N-[2-(3-methoxyphenyl)ethyl]-2-methyl-5-(phenylsulfonyl)benzenesulfonamide]
–	–	1.7	0.6	–	–	COc1ccc(CCNS(=O)(=O)c2cc(S(=O)(=O)c3ccccc3)ccc2C)cc1OC [Example 34, N-[2-(3,4-dimethoxyphenyl)ethyl]-2-methyl-5-(phenylsulfonyl)benzenesulfonamide]
–	–	1.7	0.9	–	–	Cc1ccc(S(=O)(=O)c2ccccc2)cc1S(=O)(=O)NCCc1ccc(S(N)(=O)=O)cc1 [Example 40, N-{2-[4-(aminosulfonyl)phenyl]ethyl}-2-methyl-5-(phenylsulfonyl)benzenesulfonamide]
–	–	3.6	1	–	–	Cc1ccc(S(=O)(=O)c2ccccc2)cc1S(=O)(=O)NCCc1ccc2c(c1)OCO2 [Example 43, N-[2-(1,3-benzodioxol-5-yl)ethyl]-2-methyl-5-(phenylsulfonyl)benzenesulfonamide]
–	–	2.6	0.9	–	–	CCOc1ccc(CCNS(=O)(=O)c2cc(S(=O)(=O)c3ccccc3)ccc2C)cc1 [Example 51, N-[2-(4-ethoxyphenyl)ethyl]-2-methyl-5-(phenylsulfonyl)benzenesulfonamide]
–	–	1.4	0.7	–	–	Cc1ccc(S(=O)(=O)c2ccccc2)cc1S(=O)(=O)NCCc1cccc(F)c1 [Example 52, N-[2-(3-fluorophenyl)ethyl]-2-methyl-5-(phenylsulfonyl)benzenesulfonamide]
–	–	3.8	1.1	3.6 fold	–	CCOc1cc(CCNS(=O)(=O)c2cc(S(=O)(=O)c3ccccc3)ccc2C)ccc1OC [Example 54, N-[2-(3-ethoxy-4-methoxyphenyl)ethyl]-2-methyl-5-(phenylsulfonyl)benzenesulfonamide]
–	–	3.1	0.9	–	–	CCOc1ccc(CCNS(=O)(=O)c2cc(S(=O)(=O)c3ccccc3)ccc2C)cc1OC [Example 55, N-[2-(4-ethoxy-3-methoxyphenyl)ethyl]-2-methyl-5-(phenylsulfonyl)benzenesulfonamide]
1.3	1.2	–	–	–	–	CCOc1cc(CCNS(=O)(=O)c2cccc(S(=O)(=O)c3ccccc3)c2)ccc1OC [Example 83, N-[2-(3-ethoxy-4-methoxyphenyl)ethyl]-3-(phenylsulfonyl)benzenesulfonamide]
–	–	1	0.4	–	–	COc1ccc(CCNS(=O)(=O)c2cc(S(=O)(=O)c3ccc(Cl)cc3)ccc2C)cc1OC [Example 92, 5-[(4-chlorophenyl)sulfonyl]-N-[2-(3,4-dimethoxyphenyl)ethyl]-2-methylbenzenesulfonamide]
–	–	0.9	0.4	–	–	Cc1ccc(S(=O)(=O)c2ccc(C)c(S(=O)(=O)NCCc3ccccc3)c2)cc1 [Example 116, 2-methyl-5-[(4-methylphenyl)sulfonyl]-N-(2-phenylethyl)benzenesulfonamide]
–	–	1.3	0.5	–	–	COc1ccccc1CCNS(=O)(=O)c1cc(S(=O)(=O)c2ccc(C)cc2)ccc1C [Example 118, N-[2-(2-methoxyphenyl)ethyl]-2-methyl-5-[(4-methylphenyl)sulfonyl]benzenesulfonamide]
–	–	0.2	0.3	–	–	COc1cccc(CCNS(=O)(=O)c2cc(S(=O)(=O)c3ccc(C)cc3)ccc2C)c1 [Example 119, N-[2-(3-methoxyphenyl)ethyl]-2-methyl-5-[(4-methylphenyl)sulfonyl]benzenesulfonamide]
–	–	1.2	0.5	–	–	COc1ccc(CCNS(=O)(=O)c2cc(S(=O)(=O)c3ccc(C)cc3)ccc2C)cc1OC [Example 120, N-[2-(3,4-dimethoxyphenyl)ethyl]-2-methyl-5-[(4-methylphenyl)sulfonyl]benzenesulfonamide]

Further lines, the molecule ahead of its results:

Structure (SMILES)	fold induction at 15 µM [1]	fold induction at 15 µM [2]	fold induction at 30 µM [3]	fold induction at 30 µM [4]	Fold Induction with SFRP-1 [5]	Fold Induction without SFRP-1 (Conc 30 μM, without SFRP-1, single dose)
Cc1ccc(S(=O)(=O)c2ccccc2)cc1S(=O)(=O)N[C@H]1CCCC[C@@H]1O (relative stereo) [Example 412, N-[(1S*,2S*)-2-hydroxycyclohexyl]-2-methyl-5-(phenylsulfonyl)benzenesulfonamide]	1.9	1.5	–	–	–	–
Cc1ccc(S(=O)(=O)c2ccc(F)cc2)cc1S(=O)(=O)NCCc1ccccc1 [Example 2, 5-[(4-fluorophenyl)sulfonyl]-2-methyl-N-(2-phenylethyl)benzenesulfonamide]	–	–	0.9	0.5	–	–
Cc1ccc(S(=O)(=O)c2ccc(F)cc2)cc1S(=O)(=O)NCCc1ccccc1Cl [Example 3, N-[2-(2-chlorophenyl)ethyl]-5-[(4-fluorophenyl)sulfonyl]-2-methylbenzenesulfonamide]	–	–	1.1	0.4	–	–
Cc1ccc(S(=O)(=O)c2ccc(F)cc2)cc1S(=O)(=O)NCCc1cccc(F)c1 [Example 24, N-[2-(3-fluorophenyl)ethyl]-5-[(4-fluorophenyl)sulfonyl]-2-methylbenzenesulfonamide]	–	–	0.3	0.3	–	–
COc1ccc(Br)cc1CCNS(=O)(=O)c1cc(S(=O)(=O)c2ccc(F)cc2)ccc1C [Example 30, N-[2-(5-bromo-2-methoxyphenyl)ethyl]-5-[(4-fluorophenyl)sulfonyl]-2-methylbenzenesulfonamide]	2.4	0.9	1.7	–	1 fold	–
Cc1ccc(S(=O)(=O)c2ccccc2)cc1S(=O)(=O)NCCc1ccccc1Cl [Example 31, N-[2-(2-chlorophenyl)ethyl]-2-methyl-5-(phenylsulfonyl)benzenesulfonamide]	–	–	0.4	0.5	–	–
Cc1ccc(S(=O)(=O)c2ccccc2)cc1S(=O)(=O)NCCc1ccccc1F [Example 53, N-[2-(2-fluorophenyl)ethyl]-2-methyl-5-(phenylsulfonyl)benzenesulfonamide]	–	–	1	0.4	1.2 fold	0.6 fold
COc1cccc(CCNS(=O)(=O)c2cccc(S(=O)(=O)c3ccccc3)c2)c1 [Example 62, N-[2-(3-methoxyphenyl)ethyl]-3-(phenylsulfonyl)benzenesulfonamide]	1.2	1.1	–	–	–	–
CCOc1ccc(CCNS(=O)(=O)c2cccc(S(=O)(=O)c3ccccc3)c2)cc1 [Example 80, N-[2-(4-ethoxyphenyl)ethyl]-3-(phenylsulfonyl)benzenesulfonamide]	1	0.7	–	–	–	–
O=S(=O)(NCCc1cccc(F)c1)c1cccc(S(=O)(=O)c2ccccc2)c1 [Example 81, N-[2-(3-fluorophenyl)ethyl]-3-(phenylsulfonyl)benzenesulfonamide]	1	0.9	–	–	–	–
O=S(=O)(NCCc1ccccc1F)c1cccc(S(=O)(=O)c2ccccc2)c1 [Example 82, N-[2-(2-fluorophenyl)ethyl]-3-(phenylsulfonyl)benzenesulfonamide]	1.2	1	–	–	–	–
Cc1ccc(S(=O)(=O)c2ccc(Cl)cc2)cc1S(=O)(=O)NCCc1ccccc1Cl [Example 89, N-[2-(2-chlorophenyl)ethyl]-5-[(4-chlorophenyl)sulfonyl]-2-methylbenzenesulfonamide]	–	–	1.8	0.5	–	–
Cc1ccc(S(=O)(=O)c2ccc(C)c(S(=O)(=O)NCCc3ccccc3Cl)c2)cc1 [Example 117, N-[2-(2-chlorophenyl)ethyl]-2-methyl-5-[(4-methylphenyl)sulfonyl]benzenesulfonamide]	–	–	1	0.5	–	–
Cc1ccc(S(=O)(=O)c2ccc(C)c(S(=O)(=O)NCCc3ccccc3F)c2)cc1 [Example 138, N-[2-(2-fluorophenyl)ethyl]-2-methyl-5-[(4-methylphenyl)sulfonyl]benzenesulfonamide]	2.7	0.9	1.1	0.5	–	–
CCc1ccc(S(=O)(=O)c2ccccc2)cc1S(=O)(=O)NCCc1ccccc1 [Example 141, 2-ethyl-N-(2-phenylethyl)-5-(phenylsulfonyl)benzenesulfonamide]	3.3	1	–	–	–	–
